In patent US9127040B2, “Regulation of sodium channels by PLUNC proteins” (The University of North Carolina at Chapel Hill, priority 2011, dated 2015):
Ends that are not written are not given here.

Key:
[1] = Urinary Na+ excretion (natriuresis) in anesthetized mice after intravenous infusion; type: in vivo; details: 250 nmol/g BW/h intravenous infusion, unconscious mice
Experimental: To study the effects of SPLUNC1-derived peptides on the in vivo kidney, mice were anesthetized. After a baseline 45 min control clearance period, S18-type peptide or amiloride were infused intravenously over 30 min and the natriuretic response recorded over the subsequent 2-3 h.
Urinary Na^+ output was measured in unconscious mice (FIG. 32). Amiloride (38 nmol/g BW/h; ▪) and S18 (250 nmol/g BW/h; ▴) were added during the infusion period and urinary Na^+ excretion (UNaV) was measured throughout.

[2] = molecular target: T1, βENaC-eGFP (Homo sapiens, UniProt P51168); experiment: Confocal imaging of βENaC-eGFP internalization in HEK cells; type: cell-based; details: 1 h after 100 μM S18
T1 construct: expressed in transfected cells; host or cells: HEK cells
Text: Ai, cartoon of αENaC-eGFP and βENaC-mCherry under basal conditions (γENaC not shown). Aii We hypothesize that S18 binding to the extracellular loop of βENaC (1) induces a conformational change in ENaC which is reflected as altered intracellular FRET (2). This change may facilitate NEDD4-2-induced ubiquitination (3), leading to internalization of αβγENaC (4). […] In contrast, exposure to aprotinin had no effect. All n=8-10. C, Typical confocal images of HEK cells expressing αγENaC and βENaC-eGFP before and 1 h after 100 μM S18. Cell outlines are traced in white.
Since ENaC is regulated by NEDD4-2 binding to its C-termini, which leads to ubiquitination of its N-termini and internalization, we propose that S18 causes a conformational change in ENaC, leading to increased ubiquitination followed by internalization (FIG. 21A). As a first step towards understanding the mechanism of action of SPLUNC1, we performed FRET on fluorescently tagged ENaCs. […] Furthermore, βENaC-eGFP internalized upon S18 binding (FIG. 21C), consistent with our surface biotinylation data from oocytes.

[3] = molecular target: T2, ENaC (Homo sapiens, UniProt P37088+P51168+P51170); experiment: Transepithelial electrical resistance in human bronchial epithelial cultures; type: cell-based; details: 50 ng/ml SPLUNC1 30 min or amiloride 10 min; effects not additive
T2 construct: measured the transepithelial voltage under thin film conditions in human bronchial epithelial cultures; endogenous in cells; host or cells: primary human bronchial epithelial cultures (normal or CF donors)
T2 sequence (P37088 1-669): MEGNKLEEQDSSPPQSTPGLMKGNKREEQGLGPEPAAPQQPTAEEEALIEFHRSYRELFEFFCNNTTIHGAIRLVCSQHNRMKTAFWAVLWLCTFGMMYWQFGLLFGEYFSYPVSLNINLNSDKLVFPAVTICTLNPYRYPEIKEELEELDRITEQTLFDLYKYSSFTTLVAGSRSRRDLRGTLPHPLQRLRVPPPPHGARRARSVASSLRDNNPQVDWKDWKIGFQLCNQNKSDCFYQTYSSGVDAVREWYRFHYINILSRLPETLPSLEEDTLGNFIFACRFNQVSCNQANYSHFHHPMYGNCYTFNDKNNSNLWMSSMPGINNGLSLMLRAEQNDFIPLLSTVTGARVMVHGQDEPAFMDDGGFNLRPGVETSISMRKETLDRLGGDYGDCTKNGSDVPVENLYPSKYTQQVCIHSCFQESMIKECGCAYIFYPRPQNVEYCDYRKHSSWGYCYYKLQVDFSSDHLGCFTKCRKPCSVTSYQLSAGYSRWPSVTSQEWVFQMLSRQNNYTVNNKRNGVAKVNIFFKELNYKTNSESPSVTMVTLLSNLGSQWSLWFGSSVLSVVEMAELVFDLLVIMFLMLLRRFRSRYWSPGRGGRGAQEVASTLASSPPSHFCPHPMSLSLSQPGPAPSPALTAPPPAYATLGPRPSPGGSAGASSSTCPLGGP
T2 sequence (P51168 1-640): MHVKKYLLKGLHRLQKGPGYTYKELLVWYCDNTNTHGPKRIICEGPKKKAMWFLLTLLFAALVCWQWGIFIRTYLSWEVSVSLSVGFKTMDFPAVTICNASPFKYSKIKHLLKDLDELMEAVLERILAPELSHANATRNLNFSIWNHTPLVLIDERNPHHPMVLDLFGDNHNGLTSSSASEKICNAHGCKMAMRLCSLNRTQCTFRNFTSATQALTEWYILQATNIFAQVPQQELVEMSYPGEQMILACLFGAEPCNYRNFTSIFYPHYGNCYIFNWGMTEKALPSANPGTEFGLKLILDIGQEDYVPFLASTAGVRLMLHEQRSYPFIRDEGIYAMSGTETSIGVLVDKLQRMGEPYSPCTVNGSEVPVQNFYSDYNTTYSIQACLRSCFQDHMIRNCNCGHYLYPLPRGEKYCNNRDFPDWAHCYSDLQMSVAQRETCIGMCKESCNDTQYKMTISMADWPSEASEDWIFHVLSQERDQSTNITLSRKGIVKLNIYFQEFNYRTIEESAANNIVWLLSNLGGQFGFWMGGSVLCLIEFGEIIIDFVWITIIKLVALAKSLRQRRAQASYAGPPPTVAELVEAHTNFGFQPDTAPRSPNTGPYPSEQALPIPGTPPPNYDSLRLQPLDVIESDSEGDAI
T2 sequence (P51170 1-649): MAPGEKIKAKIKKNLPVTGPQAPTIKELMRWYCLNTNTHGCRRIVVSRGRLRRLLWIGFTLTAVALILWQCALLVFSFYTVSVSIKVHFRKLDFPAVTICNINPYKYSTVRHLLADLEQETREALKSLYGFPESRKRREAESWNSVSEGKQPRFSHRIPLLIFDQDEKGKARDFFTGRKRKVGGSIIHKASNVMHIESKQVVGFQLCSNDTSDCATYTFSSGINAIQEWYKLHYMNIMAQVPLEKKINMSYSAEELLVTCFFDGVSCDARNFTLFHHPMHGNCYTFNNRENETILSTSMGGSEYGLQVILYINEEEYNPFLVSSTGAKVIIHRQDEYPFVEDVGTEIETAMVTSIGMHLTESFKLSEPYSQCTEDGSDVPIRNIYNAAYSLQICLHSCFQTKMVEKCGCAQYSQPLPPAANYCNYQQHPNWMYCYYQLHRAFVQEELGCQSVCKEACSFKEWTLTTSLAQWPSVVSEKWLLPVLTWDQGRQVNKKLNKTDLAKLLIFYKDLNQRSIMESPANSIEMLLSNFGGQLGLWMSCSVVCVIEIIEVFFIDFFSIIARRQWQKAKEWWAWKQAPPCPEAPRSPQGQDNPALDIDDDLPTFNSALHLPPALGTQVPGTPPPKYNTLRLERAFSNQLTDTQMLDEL
Text: A single-barreled potential difference-sensing electrode was placed in the airway surface liquid by micromanipulator and used in conjunction with a macroelectrode in the serosal solution to measure transepithelial voltage using a voltmeter (World Precision Instruments). […] Transepithelial resistance was routinely measured using the EVOM system (WPI) as previously described ([…] et al., J. Gen. Physiol. 127:591 (2006)).

GGLPVPLDQTLPLNVNPA [S18]
urinary Na+ excretion (UNaV) [1]: induces natriuresis | βENaC-eGFP internalization [2]: internalized

B1: SPLUNC1: human SPLUNC1 (SEQ ID NO:1), 256 amino acid secreted PLUNC family protein; rSPLUNC1 is the purified V5/6His-tagged recombinant form (protein, listed as Homo sapiens)
chain: MFQTGGLIVFYGLLAQTMAQFGGLPVPLDQTLPLNVNPALPLSPTGLAGSLTNALSNGLLSGGLLGILENLPLLDILKPGGGTSGGLLGGLLGKVTSVIPGLNNIIDIKVTDPQLLELGLVQSPDGHRLYVTIPLGIKLQVNTPLVGASLLRLAVKLDITAEILAVRDKQERIHLVLGDCTHSPGSLQISLLDGLGPLPIQGLLDSLTGILNKVLPELVQGNVCPLVNEVLRGLDITLVHDIVNMLIHGLQFVIKV
modifications: V5/6His tag in recombinant form
notes: rSPLUNC1 is the purified V5/6His-tagged recombinant form
increase of transepithelial electrical resistance [3]: ~33%
